Data taken from article PMC7542481, “Synthesis of Amino Acid Schiff Base Nickel (II) Complexes as Potential Anticancer Drugs In Vitro” (Bioinorganic Chemistry and Applications, 2020).

Experiments:
breast cancer MCF-7 = assay: MTT cytotoxicity assay, MCF-7; format: cell-based, human; settings: treatment 48 h
Experimental: (§1) 3-(4,5-Dimethylthiazol-2-yl)-2, 5-diphenyltetrazolium bromide (MTT) method was used to assay the cytotoxicity in vitro. Complexes 1–3, ligands (L1, L2, and L3), Ni (CH3COO)2, and cisplatin were dissolved in DMSO at the concentration of 20 mM as a stock solution for subsequent testing. Four different cancer cell lines (MCF-7, SGC-7901, Eca-109, and HepG2) and one normal cell line (HSF) were seeded in 96-well and cultured at 37 °C in 5% CO2. After 24 h, the medium was replaced by different concentrations of complex and incubated for 48 h. 10 μL MTT dye (5 mg/mL) was added to each well and incubated for another 4 h. After that, the medium was removed and DMSO (100 μL) was added to solubilize the MTT formazan. A microplate reader (Bio-Rad iMark™) was used to measure the OD value of each well at a wavelength of 490 nm. Each experiment was repeated at least three times, and GraphPad Prism 5.0 was used to analyze the IC50 values.

gastric cancer SGC-7901 = assay: MTT cytotoxicity assay, SGC-7901; format: cell-based, human; settings: treatment 48 h
Experimental: as §1

[1] = tested on: esophageal cancer Eca-109; assay: MTT cytotoxicity assay, Eca-109; format: cell-based, human; settings: treatment 48 h
Experimental: as §1

[2] = tested on: hepatocellular carcinoma HepG2; assay: MTT cytotoxicity assay, HepG2; format: cell-based, human; settings: treatment 48 h
Experimental: as §1

normal human cells HSF = assay: MTT cytotoxicity assay, HSF; format: cell-based; settings: treatment 48 h
Experimental: as §1

Eca-109 cells [3] = assay: Annexin V-PE/7-AAD staining apoptosis assay by flow cytometry (with or without NAC or 3-MA pretreatment); format: cell-based, human; settings: for percentage of apoptotic cells: 24 h, control 7.30%
Experimental: N-acetyl-L-cysteine (NAC), as a ROS scavenger, was added in a medium for 1 h before the addition of complex 2 to examine the effect of ROS on cell viability. The percentage of apoptotic cells was detected by Annexin V-PE/7-AAD staining assay after complex 2 treatment with or without NAC.
Different stages of apoptosis induced by complex 2 were determined by Annexin V-PE and 7-AAD staining according to the manufacture's protocol for the Annexin V Apoptosis Detection Kit (BD, Bioscience). Eca-109 cells were seeded in a 6-well plate with a density of 2 × 10^5 cells per well and cultured at 37°C in 5% CO2 for 24 h. Then, different concentrations of complex 2 were added into the above well and incubated for another 24 h. The cells were resuspended in binding buffer, stained with 5 μL Annexin V-PE and 5 μL 7-AAD at room temperature for 15 min, and analyzed using the flow cytometer (BD FACS Aria III).
3-MA, as an autophagic inhibitor, was added in a medium for 1 h before the addition of complex 2 to examine the effect of autophagy on cell viability. The percentage of apoptotic cells was detected by Annexin V-PE/7-AAD staining assay after complex 2 treatment with or without 3-MA.

Eca-109 cells [4] = assay: Mitochondrial membrane potential by JC-1 staining, flow cytometry; format: cell-based, human; settings: 24 h, control 4.69%
Experimental: After being treated with different concentrations of complex 2, the cells were collected and incubated in 500 μL PBS containing 10 μg/mL JC-1 for 20 min at 37°C in the dark. Then, the cells were resuspended in PBS and analyzed by flow cytometry (BD FACS Aria III).

Eca-109 cells [5] = assay: Cell cycle arrest assay, PI staining, flow cytometry; format: cell-based, human; settings: for percentage of cells in S phase / percentage in the cell at the G2/M phase / percentage in the cell at the G0/G1 phase: 24 h; for percentage in the cell at the G2/M phase: control 6.35%; for percentage in the cell at the G0/G1 phase: control 63.82%
Experimental: After treatment with different concentrations of complex 2, the cells were collected and fixed with 70% ethanol for the night. Then, the cells were incubated in 500 μL PBS containing Triton X-100 (0.1% v/v), RNase A (0.2 mg/mL), and propidium iodide (PI, 0.02 mg/mL) for 15 min. Then, the cells were analyzed by flow cytometry (BD FACS Aria III).

Eca-109 cells [6] = assay: AO/EB double staining, fluorescence microscopy; format: cell-based, human; settings: Eca-109, 20 μM and 40 μM, 24 h
Experimental: AO/EB double staining was used to observe the changes in apoptotic cells. Eca-109 cells were cultured in a 6-well plate for 24 h. Then, cells were treated with different concentrations of complex 2 for another 24 h. After that, cells were washed twice with ice-cold PBS, stained with 100 μg/mL AO/EB for 10 minutes, and photographed by fluorescence microscopy (Nikon Eclipse Ti–E, Nikon Instruments Inc., Japan).

Eca-109 cells [7] = assay: Hoechst 33342 staining, fluorescence microscopy; format: cell-based, human; settings: Eca-109, 20 μM and 40 μM, 24 h
Experimental: With the density of 2 × 10^5 cells per well, Eca-109 cells were cultured in a 6-well plate for 24 h. After that, the medium was replaced by different concentrations of complex 2 and incubated for another 24 h. Then, cells were washed twice with ice-cold PBS, stained with 10 μg/mL Hoechst 33342 for 15 minutes, and photographed by fluorescence microscopy (Nikon Eclipse Ti–E, Nikon Instruments Inc., Japan).

Eca-109 cells [8] = assay: Intracellular ROS level, DCFH-DA probe; format: cell-based, human; settings: Eca-109, 20 μM and 40 μM, 24 h
Experimental: Eca-109 cells were seeded into a 6-well plate at a density of 2 × 10^5 cells per well and incubated for 24 h. Then, the medium was replaced and incubated with different concentrations of complex 2 for another 24 h. After that, cells were washed twice with ice-cold PBS, stained with 10 μM DCFH-DA for 30 minutes, and photographed by fluorescence microscopy (Nikon Eclipse Ti–E, Nikon Instruments Inc., Japan).

Eca-109 cells [9] = assay: Autophagy assay, MDC staining; format: cell-based, human; settings: Eca-109, 20 μM and 40 μM, 24 h, compared to the control group
Experimental: Eca-109 cells were seeded in 6-well plates and incubated at 37 °C in 5% CO2 for 24 h. Then, the medium was replaced with different concentrations of complex 2 for another 24 h. After that, the medium was removed and the cells were washed twice with ice-cold PBS. Then, the cells were stained with MDC (monodansylcadaverine) solution (50 μM) for 15 min, and the data were obtained by flow cytometry (BD FACS Aria III).

Bcl-2 = assay: Western blot assay, Bcl-2; format: cell-based, human; settings: Eca-109, 24 h, concentration-dependent
Experimental: (§2) After incubation with different concentrations of complex 2, cells were harvested in a radioimmunoprecipitation assay (RIPA) buffer with protease inhibitors and phosphatase inhibitors. BCA Protein Assay Kit was used to determine the protein concentration. Then, the expression levels of proteins associated with Bcl-2 family and autophagy were measured by Western blot assay.

Bcl-xL = assay: Western blot assay, Bcl-xL; format: cell-based, human; settings: Eca-109, 24 h, concentration-dependent
Experimental: as §2

Bax = assay: Western blot assay, Bax; format: cell-based, human; settings: Eca-109, 24 h, concentration-dependent
Experimental: as §2

Bad = assay: Western blot assay, Bad; format: cell-based, human; settings: Eca-109, 24 h, concentration-dependent
Experimental: as §2

Beclin-1 = assay: Western blot assay, Beclin-1; format: cell-based, human; settings: Eca-109, 24 h, concentration-dependent
Experimental: as §2

LC3B-II = assay: Western blot assay, LC3B-II; format: cell-based, human; settings: Eca-109, 24 h, concentration-dependent
Experimental: as §2

p62 = assay: Western blot assay, p62; format: cell-based, human; settings: Eca-109, 24 h, concentration-dependent
Experimental: as §2

N.N.[Cl][Pt][Cl] [Cisplatin, reference compound]
IC50 (breast cancer MCF-7): 12.3 ± 0.75 µM | IC50 (gastric cancer SGC-7901): 11.7 ± 1.45 µM | IC50 [1]: 11.9 ± 0.19 µM | IC50 [2]: 13.9 ± 0.58 µM | IC50 (normal human cells HSF): 17.1 ± 1.31 µM

O=C1[O][Ni][O]c2ccccc2C=N[C@@H]1Cc1c[nH]c2ccccc12.c1cnc2c(c1)ccc1cccnc12 [Complex 1, [Ni (Trp-sal) (phen) (CH3OH)]]
IC50 (breast cancer MCF-7): 75.75 ± 0.41 µM | IC50 (gastric cancer SGC-7901): 34 ± 2.5 µM | IC50 [1]: 23.9 ± 2.54 µM | IC50 [2]: > 80 µM | IC50 (normal human cells HSF): 60.9 ± 1.76 µM

CO.CO.CO.COc1cccc(C=N[C@H](Cc2c[nH]c3ccccc23)C(=O)[O-])c1[O-].[Ni+2].c1cnc2c(c1)ccc1cccnc12 [Complex 2, [Ni (Trp-o-van) (phen) (CH3OH)]•2CH3OH]
IC50 (breast cancer MCF-7): 16.1 ± 1.32 µM | IC50 (gastric cancer SGC-7901): 15.7 ± 1.46 µM | IC50 [1]: 18.1 ± 2.39 µM | IC50 [2]: 47.29 ± 0.35 µM | IC50 (normal human cells HSF): 23.9 ± 0.74 µM | percentage of apoptotic cells (Eca-109 cells [3]; Eca-109, 20 μM): 8.78% | percentage of apoptotic cells (Eca-109 cells [3]; Eca-109, 40 μM): 29.40% | percentage of apoptosis cells with NAC pretreatment versus without (Eca-109 cells [3]; Eca-109, 24 h, NAC added 1 h before): reduced | green fluorescence of the JC-1 monomers (loss of MMP) (Eca-109 cells [4]; Eca-109, 20 μM): 6.86% | green fluorescence of the JC-1 monomers (loss of MMP) (Eca-109 cells [4]; Eca-109, 40 μM): 49.5% | cell cycle arrest (in words) (Eca-109 cells [5]; Eca-109): cell cycle arrest in the G2/M phase | percentage of cells in S phase (Eca-109 cells [5]; Eca-109, 20 μM): 33.27% | percentage in the cell at the G2/M phase (Eca-109 cells [5]; Eca-109, 20 μM): 7.21% | percentage in the cell at the G0/G1 phase (Eca-109 cells [5]; Eca-109, 20 μM): 59.51% | percentage of cells in S phase (Eca-109 cells [5]; Eca-109, 40 μM): 31.32% | percentage in the cell at the G2/M phase (Eca-109 cells [5]; Eca-109, 40 μM): 19.84% | percentage in the cell at the G0/G1 phase (Eca-109 cells [5]; Eca-109, 40 μM): 48.84% | morphological changes, AO/EB staining (Eca-109 cells [6]): nuclear shrinkage, chromatin condensation, and late apoptotic cells containing red apoptotic bodies | apoptotic characteristics, Hoechst 33342 staining (Eca-109 cells [7]): apoptotic characteristics were also observed | intracellular ROS level (DCF fluorescence) (Eca-109 cells [8]): increase the intracellular ROS level in a dosage-dependent manner | MDC staining intensity (autophagy level) (Eca-109 cells [9]): increased significantly | expression level of Bcl-2 (Bcl-2): significantly decreased | expression level of Bcl-xL (Bcl-xL): significantly decreased | expression level of Bax (Bax): significantly increased | expression level of Bad (Bad): significantly increased | expression level of Beclin-1 (Beclin-1): increased | expression level of LC3B-II (LC3B-II): increased | expression level of p62 (p62): decreased

O=C([O-])[C@@H](Cc1c[nH]c2ccccc12)N=Cc1c([O-])ccc2ccccc12.[Ni+2].c1cnc2c(c1)ccc1cccnc12 [Complex 3, [Ni (Trp-naph) (phen) (CH3OH)]]
IC50 (breast cancer MCF-7): 23.7 ± 0.55 µM | IC50 (gastric cancer SGC-7901): 24.3 ± 0.95 µM | IC50 [1]: 21.9 ± 3.19 µM | IC50 [2]: 28.1 ± 1.34 µM | IC50 (normal human cells HSF): 32.5 ± 1.98 µM

Cn1cnc(N)c2ncnc1-2 [Complex 3-MA, 3-methyladenine, reference compound]
toxicity toward cells (Eca-109 cells [3]; Eca-109, 3-MA alone): nontoxicity

O=C(O)C(Cc1c[nH]c2ccccc12)N=Cc1ccccc1O (stereo not drawn) [Complex L1]
IC50 (breast cancer MCF-7): > 80 µM | IC50 (gastric cancer SGC-7901): > 80 µM | IC50 [1]: > 80 µM | IC50 [2]: > 80 µM

COc1cccc(C=N[C@H](Cc2c[nH]c3ccccc23)C(=O)O)c1O [Complex L2]
IC50 (breast cancer MCF-7): > 80 µM | IC50 (gastric cancer SGC-7901): > 80 µM | IC50 [1]: > 80 µM | IC50 [2]: > 80 µM

O=C(O)[C@@H](Cc1c[nH]c2ccccc12)N=Cc1c(O)ccc2ccccc12 [Complex L3]
IC50 (breast cancer MCF-7): > 80 µM | IC50 (gastric cancer SGC-7901): 42.7 ± 1.13 µM | IC50 [1]: 48.4 ± 4.99 µM | IC50 [2]: > 80 µM

CC(=O)[O-].CC(=O)[O-].[Ni+2] [Ni (CH3COO)2, reference compound]
IC50 (breast cancer MCF-7): > 80 µM | IC50 (gastric cancer SGC-7901): 41.4 ± 0.87 µM | IC50 [1]: 43.5 ± 1.34 µM | IC50 [2]: > 80 µM
